Molecular target: T1, HDAC6 enzyme (Homo sapiens, UniProt Q9UBN7)
T1 construct: transducing full length HDAC6 gene into Sf-9 insect cells; GST; purchased SignalChem; host or cells: Sf-9 insect cells
T1 sequence (Q9UBN7 1-1215): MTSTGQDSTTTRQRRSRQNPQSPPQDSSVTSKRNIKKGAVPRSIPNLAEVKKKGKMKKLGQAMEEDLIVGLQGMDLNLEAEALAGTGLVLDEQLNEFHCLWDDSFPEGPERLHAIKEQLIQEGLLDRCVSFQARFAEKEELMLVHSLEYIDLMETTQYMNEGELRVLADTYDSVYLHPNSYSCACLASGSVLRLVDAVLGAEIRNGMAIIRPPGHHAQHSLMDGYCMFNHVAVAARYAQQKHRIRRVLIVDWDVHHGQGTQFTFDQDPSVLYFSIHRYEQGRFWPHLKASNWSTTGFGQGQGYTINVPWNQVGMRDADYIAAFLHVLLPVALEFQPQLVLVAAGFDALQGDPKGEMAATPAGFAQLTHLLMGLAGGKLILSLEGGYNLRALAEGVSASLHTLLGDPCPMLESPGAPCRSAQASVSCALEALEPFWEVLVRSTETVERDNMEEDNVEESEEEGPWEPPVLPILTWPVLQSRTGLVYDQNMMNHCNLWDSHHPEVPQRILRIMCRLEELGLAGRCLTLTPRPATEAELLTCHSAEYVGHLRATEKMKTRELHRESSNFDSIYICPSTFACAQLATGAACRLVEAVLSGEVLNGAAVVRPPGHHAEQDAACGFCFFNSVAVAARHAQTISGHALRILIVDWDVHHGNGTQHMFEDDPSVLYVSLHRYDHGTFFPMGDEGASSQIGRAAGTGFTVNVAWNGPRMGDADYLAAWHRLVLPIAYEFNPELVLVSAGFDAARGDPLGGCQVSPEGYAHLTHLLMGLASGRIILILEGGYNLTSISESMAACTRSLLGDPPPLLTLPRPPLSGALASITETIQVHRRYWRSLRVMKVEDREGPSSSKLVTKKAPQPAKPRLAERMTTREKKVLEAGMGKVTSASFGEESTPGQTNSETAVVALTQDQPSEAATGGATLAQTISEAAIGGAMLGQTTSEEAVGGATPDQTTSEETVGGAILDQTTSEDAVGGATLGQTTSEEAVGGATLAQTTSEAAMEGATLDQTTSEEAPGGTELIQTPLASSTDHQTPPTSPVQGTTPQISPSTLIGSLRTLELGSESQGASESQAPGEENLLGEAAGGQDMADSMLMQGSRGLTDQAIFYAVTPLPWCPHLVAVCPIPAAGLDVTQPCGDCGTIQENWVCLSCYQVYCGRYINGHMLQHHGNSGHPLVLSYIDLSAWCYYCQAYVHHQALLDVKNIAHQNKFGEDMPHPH
Test: HDAC6 enzyme inhibitory activity (HDAC-Glo I/II Assay kit)
Format: biochemical
Conditions: 10 μM; wells without enzyme = 100% inhibition; read-out: HDAC6 inhibitory rate (%) (10 μM)
Outline: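 Luminescence read-out after 20 min reaction with HDAC-Glo substrate-developer, following 60 min room-temperature preincubation of compound with Sf-9-expressed, GST-purified full-length enzyme. Inhibition is relative to no-enzyme wells set as 100%.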

**Q.** For `O=C1c2cc(-c3nnc(C(F)F)o3)cnc2CN1c1ccc(F)cc1-c1cccc(Cl)c1` [Example 410, 6-(3′-chloro-5-fluoro-biphenyl-2-yl)-3-(5-(difluoro-methyl)-1,3,4-oxadiazol-2-yl)-6,7-dihydro-5H-pyrrolo [3,4-b]pyridin-5-one], which inhibition at 10 µM is on record?
**A.** Its inhibition at 10 µM is 101%.

**Q.** `Cn1cc(-c2cc(F)ccc2N2Cc3ncc(-c4nnc(C(F)F)o4)cc3C2=O)cn1` [Example 411, 3-(5-(difluoro-methyl)-1,3,4-oxadiazol-2-yl)-6-(4-fluoro-2-(1-methyl-1H-pyrazol-4-yl)phenyl)-6,7-dihydro-5H-pyrrolo[3,4-b] pyridin-5-one] was tested. Which inhibition at 10 µM did it give?
**A.** Its inhibition at 10 µM is 100%.

**Q.** How did the inhibition at 10 µM turn out when `Cn1nc(C(F)(F)F)cc1-c1cc(F)ccc1N1Cc2ncc(-c3nnc(C(F)F)o3)cc2C1=O` [Example 412, 3-(5-(difluoro-methyl)-1,3,4-oxadiazol-2-yl)-6-(4-fluoro-2-(1-methyl-3-(trifluoro-methyl)-1H-pyrazol-5-yl)phenyl)-6,7-dihydro-5H-pyrrolo[3,4-b] pyridin-5-one] was run?
**A.** Its inhibition at 10 µM is 100%.

**Q.** How did the inhibition at 10 µM turn out when `CC(C)(C)OC(=O)N[C@H]1COCC[C@H]1N1Cc2ccc(-c3nnc(C(F)F)o3)cc2C1=O` [Example 413, tert-butyl ((3R,4R)-4-(6-(5-(difluoro-methyl)-1,3,4-oxadiazol-2-yl)-1-oxo-1,3-dihydro-2H-isoindol-2-yl)tetrahydro-2H-pyran-3-yl) carbamate] was run?
**A.** Its inhibition at 10 µM is 98%.

**Q.** Which inhibition at 10 µM does the source give for `N[C@H]1COCC[C@H]1N1Cc2ccc(-c3nnc(C(F)F)o3)cc2C1=O` [Example 414, 2-((3R,4R)-3-aminotetra-hydro-2H-pyran-4-yl)-6-(5-(difluoro-methyl)-1,3,4-oxadiazol-2-yl) isoindolin-1-one] here?
**A.** Its inhibition at 10 µM is 87%.

**Q.** How did the inhibition at 10 µM turn out when `O=C1c2cc(-c3nnc(C(F)F)o3)ccc2CN1[C@@H]1CCOC[C@@H]1NCC(F)(F)F` [Example 415, 6-(5-(difluoro-methyl)-1,3,4-oxadiazol-2-yl)-2-((3R,4R)-3-((2,2,2-trifluoro-ethyl)amino)tetrahydro-2H-pyran-4-yl) isoindolin-1-one] was run?
**A.** The inhibition at 10 µM was 101%.

**Q.** How did the inhibition at 10 µM turn out when `O=C1c2cc(-c3nnc(C(F)F)o3)ccc2CN1[C@@H]1CCOC[C@@H]1NCC(F)(F)C(F)(F)F` [Example 416, 6-(5-(difluoro-methyl)-1,3,4-oxadiazol-2-yl)-2-((3R,4R)-3-((2,2,3,3,3-pentafluoro-propyl)amino)tetrahydro-2H-pyran-4-yl) isoindolin-1-one] was run?
**A.** Its inhibition at 10 µM is 101%.

**Q.** How did the inhibition at 10 µM turn out when `O=C1c2cc(-c3nnc(C(F)F)o3)ccc2CN1[C@@H]1CCOC[C@@H]1NC(=O)C(F)(F)C(F)(F)F` [Example 418, N-((3R,4R)-4-(6-(5-(difluoro-methyl)-1,3,4-oxadiazol-2-yl)-1-oxo-1,3-dihydro-2H-isoindol-2-yl)tetrahydro-2H-pyran-3-yl)-2,2,3,3,3-pentafluoro-propanamide] was run?
**A.** Its inhibition at 10 µM is 99%.

**Q.** With `Cn1ccc(CN2Cc3ncc(-c4nnc(C(F)F)o4)cc3C2=O)n1` [Example 419, 3-(5-(difluoro-methyl)-1,3,4-oxadiazol-2-yl)-6-((1-methyl-1H-pyrazol-3-yl)methyl)-6,7-dihydro-5H-pyrrolo[3,4-b] pyridin-5-one] as the compound, how does the inhibition at 10 µM read?
**A.** The inhibition at 10 µM was 99%.

**Q.** `O=C1c2cc(-c3nnc(C(F)F)o3)cc(F)c2CN1C[C@H]1CC(F)(F)CN1S(=O)(=O)c1cccc(F)c1` [Example 420, 2-(((2R)-4,4-difluoro-1-((3-fluoro-phenyl)sulfonyl)pyrrolidin-2-yl)methyl)-6-(5-(difluoro-methyl)-1,3,4-oxadiazol-2-yl)-4-fluoroiso-indolin-1-one] was tested. Which inhibition at 10 µM did it give?
**A.** The inhibition at 10 µM was 99%.

**Q.** How did the inhibition at 10 µM turn out when `O=C1c2cc(-c3nnc(C(F)F)o3)cc(F)c2CN1C[C@H]1CC(F)(F)CN1S(=O)(=O)CC(F)(F)F` [Example 421, 6-(5-(difluoro-methyl)-1,3,4-oxadiazol-2-yl)-2-(((2R)-4,4-difluoro-1-((2,2,2-trifluoro-ethyl)sulfonyl)pyrrolidin-2-yl)methyl)-4-fluoroiso-indolin-1-one] was run?
**A.** Its inhibition at 10 µM is 98%.

**Q.** How did the inhibition at 10 µM turn out when `O=C1c2cc(-c3nnc(C(F)F)o3)cc(F)c2CN1C[C@H]1CC(F)(F)CN1C(=O)C1CC1` [Example 422, 2-(((2R)-1-(cyclopropyl-carbonyl)-4,4-difluoro-pyrrolidin-2-yl)methyl)-6-(5-(difluoro-methyl)-1,3,4-oxadiazol-2-yl)-4-fluoroiso-indolin-1-one] was run?
**A.** The inhibition at 10 µM was 98%.

**Q.** With `Cn1cc(CN2Cc3ncc(-c4nnc(C(F)F)o4)cc3C2=O)cn1` [Example 423, 3-(5-(difluoro-methyl)-1,3,4-oxadiazol-2-yl)-6-((1-methyl-1H-pyrazol-4-yl)methyl)-6,7-dihydro-5H-pyrrolo[3,4-b] pyridin-5-one] as the compound, how does the inhibition at 10 µM read?
**A.** The inhibition at 10 µM was 99%.

**Q.** Which inhibition at 10 µM does the source give for `O=C1c2cc(-c3nnc(C(F)F)o3)cnc2CN1c1ccccc1-c1cnn(C(F)F)c1` [Example 424, 3-(5-(difluoro-methyl)-1,3,4-oxadiazol-2-yl)-6-(2-(1-(difluoro-methyl)-1H-pyrazol-4-yl)phenyl)-6,7-dihydro-5H-pyrrolo[3,4-b] pyridin-5-one] here?
**A.** The inhibition at 10 µM was 101%.

**Q.** How did the inhibition at 10 µM turn out when `O=C1c2cc(-c3nnc(C(F)F)o3)cnc2CN1Cc1cncc(C(F)(F)F)c1` [Example 425, 3-(5-(difluoro-methyl)-1,3,4-oxadiazol-2-yl)-6-((5-(trifluoro-methyl)pyridin-3-yl)methyl)-6,7-dihydro-5H-pyrrolo [3,4-b] pyridin-5-one] was run?
**A.** The inhibition at 10 µM was 99%.

**Q.** With `Cn1nc(C(F)(F)F)cc1-c1c(Cl)cccc1N1Cc2ccc(-c3nnc(C(F)F)o3)cc2C1=O` [Example 426, 2-(3-chloro-2-(1-methyl-3-(trifluoro-methyl)-1H-pyrazol-5-yl)phenyl)-6-(5-(difluoro-methyl)-1,3,4-oxadiazol-2-yl) isoindolin-1-one] as the compound, how does the inhibition at 10 µM read?
**A.** The inhibition at 10 µM was 99%.

**Q.** Which inhibition at 10 µM does the source give for `O=C1c2cc(-c3nnc(C(F)F)o3)cc(F)c2CN1C[C@H]1CCCN1S(=O)(=O)c1cccc(F)c1` [Example 427, 6-(5-(difluoro-methyl)-1,3,4-oxadiazol-2-yl)-4-fluoro-2-(((2R)-1-((3-fluorophenyl)sulfonyl)pyrrolidin-2-yl)methyl) isoindolin-1-one] here?
**A.** The inhibition at 10 µM was 100%.

**Q.** Which inhibition at 10 µM does the source give for `O=C1c2cc(-c3nnc(C(F)F)o3)cnc2CN1Cc1cccc(Br)c1` [Example 428, 6-(3-bromo-benzyl)-3-(5-(difluoro-methyl)-1,3,4-oxadiazol-2-yl)-6,7-dihydro-5H-pyrrolo [3,4-b] pyridin-5-one] here?
**A.** The inhibition at 10 µM was 99%.

**Q.** `O=C1c2cc(-c3nnc(C(F)F)o3)cc(F)c2CN1C[C@H]1CC(F)(F)CN1C(=O)c1ccccc1` [Example 429, 2-(((2R)-1-benzoyl-4,4-difluoro-pyrrolidin-2-yl)methyl)-6-(5-(difluoro-methyl)-1,3,4-oxadiazol-2-yl)-4-fluoroiso-indolin-1-one] was tested. Which inhibition at 10 µM did it give?
**A.** The inhibition at 10 µM was 97%.

**Q.** With `O=C1c2cc(-c3nnc(C(F)F)o3)cc(F)c2CN1C[C@H]1CC(F)(F)CN1S(=O)(=O)c1ccccc1` [Example 430, 6-(5-(difluoro-methyl)-1,3,4-oxadiazol-2-yl)-2-(((2R)-4,4-difluoro-1-(phenylsulfonyl)pyrrolidin-2-yl)methyl)-4-fluoroiso-indolin-1-one] as the compound, how does the inhibition at 10 µM read?
**A.** Its inhibition at 10 µM is 101%.

**Q.** Which inhibition at 10 µM does the source give for `Cn1nc(C(F)(F)F)cc1-c1c(F)cccc1N1Cc2ccc(-c3nnc(C(F)F)o3)cc2C1=O` [Example 431, 6-(5-(difluoro-methyl)-1,3,4-oxadiazol-2-yl)-2-(3-fluoro-2-(1-methyl-3-(trifluoro-methyl)-1H-pyrazol-5-yl)phenyl)iso-indolin-1-one] here?
**A.** Its inhibition at 10 µM is 100%.

**Q.** For `O=C1c2cc(-c3nnc(C(F)F)o3)cnc2CN1Cc1cccc(OC(F)(F)F)c1` [Example 432, 3-(5-(difluoro-methyl)-1,3,4-oxadiazol-2-yl)-6-(3-(trifluoro-methoxy)benzyl)-6,7-dihydro-5H-pyrrolo[3,4-b] pyridin-5-one], which inhibition at 10 µM is on record?
**A.** Its inhibition at 10 µM is 94%.

Same assay, conditions: read-out: HDAC6 inhibitory rate (%) (10 μM)

**Q.** With `O=C1c2cc(-c3nnc(C(F)F)o3)ccc2CN1[C@@H]1CCOC[C@@H]1NCC(F)(F)C(F)(F)C(F)(F)F` [Example 417, 6-(5-(difluoro-methyl)-1,3,4-oxadiazol-2-yl)-2-((3R,4R)-3-((2,2,3,3,4,4,4-heptafluoro-butyl)amino)tetrahydro-2H-pyran-4-yl) isoindolin-1-one] as the compound, how does the inhibition at 10 µM read?
**A.** The inhibition at 10 µM was 101%.

Source: patent publication US10435399B2, “HDAC6 inhibitory heterocyclic compound” (TAKEDA PHARMACEUTICAL COMPANY LIMITED, priority 2017, dated 2019)
